The test deals with formaldehyde-stabilized rabbit erythrocytes. Briefly: MAC assay (minimum agglutinating concentration). It is filed as cell-based. As to conditions: 2% v/v suspension of formaldehyde-stabilized rabbit erythrocytes. The source says: Enzymol. 83:368-373, 1982. Formaldehyde-treated rabbit erythrocytes, prepared by published procedures (Nowak et al., Biochim. Biophys. […] The MAC was defined as the lectin protein concentration (exclusive of attached chemical compounds) in the highest dilution showing visible agglutination. […] An aliquot of the formaldehyde-treated Rabbit erythrocytes was then pipetted into each well. At low lectin concentrations, there was insufficient lectin to form a network of crosslinked cells and the cells dropped to the bottom of the V-well forming what looks like a dark pin-point circle at the bottom of the plate when viewed from above. However, once the lectin concentration reached the minimum agglutination concentration (MAC), the lectin molecules began crosslinking the saccharide receptors on the erythrocyte surfaces, resulting in a network that cannot settle to the bottom of the V-well forming what looks like a large, opaque, diffuse circle when viewed from above. The lowest concentration that produces the large diffuse circle is the MAC value for a particular formulation.

concanavalin A [Umodified]: the “MAC” value was below 1 µg/mL.

(Values after patent US9745355B2, “Binding-site modified lectins and uses thereof” (SmartCells, Inc., priority 2009, dated 2017).)
